Measurements: ChEMBL document CHEMBL3120081, “Imidazopyridazine hepatitis C virus polymerase inhibitors. Structure-activity relationship studies and the discovery of a novel, traceless prodrug mechanism” (J Med Chem, 2014)
Converted amounts (≈) assume the structure as drawn.

Experiments:
[1] = AUC in CD rat at 300 mg/kg by LC/MS/MS analysis; type: ADME, organism-based; design: dose 300 mg/kg; conditions: plasma
[2] = AUC in CD rat at 100 mg/kg by LC/MS/MS analysis; type: ADME, organism-based; design: dose 100 mg/kg; conditions: plasma
[3] = AUC in CD rat at 30 mg/kg by LC/MS/MS analysis; type: ADME, organism-based; design: dose 30 mg/kg; conditions: plasma
[4] = AUC in CD rat at 10 mg/kg by LC/MS/MS analysis; type: ADME, organism-based; design: dose 10 mg/kg; conditions: plasma
[5] = Cmax in CD rat at 300 mg/kg by LC/MS/MS analysis; type: ADME, organism-based; design: dose 300 mg/kg; conditions: in vivo
[6] = Cmax in CD rat at 100 mg/kg by LC/MS/MS analysis; type: ADME, organism-based; design: dose 100 mg/kg; conditions: in vivo
[7] = Cmax in CD rat at 30 mg/kg by LC/MS/MS analysis; type: ADME, organism-based; design: dose 30 mg/kg; conditions: in vivo
[8] = Cmax in CD rat at 10 mg/kg by LC/MS/MS analysis; type: ADME, organism-based; design: dose 10 mg/kg; conditions: in vivo
[9] = Oral bioavailability in beagle dog at 1 mg/kg by LC/MS/MS analysis; type: ADME, organism-based, Canis lupus familiaris; conditions: in vivo
[10] = AUC in beagle dog at 1 mg/kg, po by LC/MS/MS analysis; type: ADME, organism-based, Canis lupus familiaris; design: dose 1 mg/kg, route oral; conditions: plasma
[11] = Half life in beagle dog at 1 mg/kg, iv by LC/MS/MS analysis; type: ADME, organism-based, Canis lupus familiaris; design: dose 1 mg/kg, route intravenous; conditions: in vivo
[12] = Volume of distribution in beagle dog at 1 mg/kg, iv by LC/MS/MS analysis; type: ADME, organism-based, Canis lupus familiaris; design: dose 1 mg/kg, route intravenous; conditions: in vivo
[13] = Clearance in beagle dog at 1 mg/kg, iv by LC/MS/MS analysis; type: ADME, organism-based, Canis lupus familiaris; design: dose 1 mg/kg, route intravenous; conditions: in vivo
[14] = Oral bioavailability in CD rat at 1 mg/kg by LC/MS/MS analysis; type: ADME, organism-based; conditions: in vivo
[15] = AUC in CD rat at 1 mg/kg, po by LC/MS/MS analysis; type: ADME, organism-based; design: dose 1 mg/kg, route oral; conditions: plasma
[16] = Half life in CD rat at 0.5 mg/kg, iv by LC/MS/MS analysis; type: ADME, organism-based; design: dose 0.5 mg/kg, route intravenous; conditions: in vivo
[17] = Volume of distribution in CD rat at 0.5 mg/kg, iv by LC/MS/MS analysis; type: ADME, organism-based; design: dose 0.5 mg/kg, route intravenous; conditions: in vivo
[18] = Clearance in CD rat at 0.5 mg/kg, iv by LC/MS/MS analysis; type: ADME, organism-based; design: dose 0.5 mg/kg, route intravenous; conditions: in vivo
[19] = Intrinsic clearance in beagle dog microsomes; type: ADME, Canis lupus familiaris, Microsome
[20] = Intrinsic clearance in CD rat microsomes; type: ADME, Microsome
[21] = biological target: T1, Voltage-gated inwardly rectifying potassium channel KCNH2 (Homo sapiens, UniProt Q12809); test: Inhibition of human ERG expressed in HEK293 cells; type: cell-based
T1 sequence (Q12809 whole entry): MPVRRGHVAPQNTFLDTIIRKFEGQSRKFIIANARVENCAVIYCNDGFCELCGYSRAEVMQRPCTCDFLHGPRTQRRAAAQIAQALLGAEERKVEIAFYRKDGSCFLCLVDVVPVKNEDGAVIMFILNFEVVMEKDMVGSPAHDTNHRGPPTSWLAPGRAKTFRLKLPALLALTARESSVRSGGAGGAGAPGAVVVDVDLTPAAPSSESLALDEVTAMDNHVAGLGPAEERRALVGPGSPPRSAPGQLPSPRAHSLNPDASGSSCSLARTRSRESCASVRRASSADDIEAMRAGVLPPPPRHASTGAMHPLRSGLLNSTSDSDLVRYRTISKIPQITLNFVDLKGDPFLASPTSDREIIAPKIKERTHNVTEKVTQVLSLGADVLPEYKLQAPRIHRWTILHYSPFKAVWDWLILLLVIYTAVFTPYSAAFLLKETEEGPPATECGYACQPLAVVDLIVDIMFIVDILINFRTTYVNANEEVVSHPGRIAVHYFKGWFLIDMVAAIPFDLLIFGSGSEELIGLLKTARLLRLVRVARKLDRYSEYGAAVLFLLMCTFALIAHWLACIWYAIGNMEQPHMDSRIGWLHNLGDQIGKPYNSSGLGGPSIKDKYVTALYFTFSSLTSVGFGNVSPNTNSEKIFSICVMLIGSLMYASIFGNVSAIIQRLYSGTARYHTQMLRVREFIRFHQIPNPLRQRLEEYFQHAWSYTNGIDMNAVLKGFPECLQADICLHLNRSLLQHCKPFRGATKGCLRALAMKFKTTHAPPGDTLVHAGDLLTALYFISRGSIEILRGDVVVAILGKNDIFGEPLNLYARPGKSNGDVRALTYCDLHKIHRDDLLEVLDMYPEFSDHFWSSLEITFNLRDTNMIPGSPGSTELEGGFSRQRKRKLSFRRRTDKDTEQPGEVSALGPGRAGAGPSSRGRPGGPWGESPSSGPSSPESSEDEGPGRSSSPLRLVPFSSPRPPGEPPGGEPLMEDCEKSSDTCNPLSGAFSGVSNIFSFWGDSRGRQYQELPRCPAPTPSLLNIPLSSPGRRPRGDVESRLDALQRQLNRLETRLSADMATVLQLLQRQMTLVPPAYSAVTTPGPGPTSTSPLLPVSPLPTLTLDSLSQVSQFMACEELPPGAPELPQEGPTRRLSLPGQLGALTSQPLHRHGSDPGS

[22] = Aqueous solubility of the compound at pH 6.8; type: physicochemical
[23] = Inhibition of Hepatitis C virus genotype 1b NS3; design: species or system Hepatitis C virus subtype 1b
[24] = Plasma protein binding in human at 5 uM after 4 hrs by rapid equilibrium dialysis technique; type: ADME, cell-free; conditions: read-out: PPB (converted)
[25] = Inhibition of Hepatitis C virus genotype 1b NS5B; design: species or system Hepatitis C virus subtype 1b
[26] = Cytotoxicity against human HepG2 cells after 48 hrs by WST assay; type: cell-based
[27] = Cytotoxicity against human MT4 cells after 48 hrs by WST assay; type: cell-based
[28] = Cytotoxicity against human HuH7 cells after 48 hrs by WST assay; type: cell-based, Huh-7
Hepatitis C virus [29] = test: Antiviral activity against Hepatitis C virus genotype 1b infected in human HuH7 cells after 48 hrs by luciferase reporter gene assay; type: functional, organism-based, Hepacivirus hominis; conditions: Huh-7, 48 h
Hepatitis C virus [30] = test: Antiviral activity against Hepatitis C virus genotype 1a infected in human HuH7 cells after 48 hrs by luciferase reporter gene assay; type: functional, organism-based, Hepacivirus hominis; conditions: subtype 1a, Huh-7, 48 h
[31] = Cmax in CD rat at 5 mg/kg by LC/MS/MS analysis; type: ADME, organism-based; design: dose 5 mg/kg; conditions: in vivo
[32] = AUC in CD rat at 5 mg/kg by LC/MS/MS analysis; type: ADME, organism-based; design: dose 5 mg/kg; conditions: plasma
[33] = biological target: T1, Voltage-gated inwardly rectifying potassium channel KCNH2; test: Inhibition of human ERG by patch-clamp technique
[34] = Solubility of the compound in neutral aqueous media at pH 6.8; type: physicochemical

Fc1cccc(-c2nc3cnn(Cc4cc(-c5ccc(C(F)(F)F)cc5C(F)(F)F)no4)cc-3n2)c1F
AUC [1]: 31000 ng·h/mL
AUC [2]: 102000 ng·h/mL
AUC [3]: 98000 ng·h/mL
AUC [4]: 25000 ng·h/mL
Cmax [5]: 2900 ng/mL
Cmax [6]: 7400 ng/mL
Cmax [7]: 7200 ng/mL
Cmax [8]: 1900 ng/mL
bioavailability [9]: 18.8%
AUC [10]: 2000 ng·h/mL
half-life [11]: 6.9 h
Vd [12]: 0.83 L/kg
clearance [13]: 2.7 mL/min/kg
bioavailability [14]: 109%
AUC [15]: 6300 ng·h/mL
half-life [16]: 3.1 h
Vd [17]: 0.57 L/kg
clearance [18]: 3 mL/min/kg
CLint scaled [19]: < 10 mL/min/kg
CLint scaled [20]: < 10 mL/min/kg
IC50 [21]: > 50.1 µM
solubility [22]: < 0.01 µg/mL
IC50 [23]: > 50 µM
fraction unbound at 4 h, 5 µM [24]: 0.002
IC50 [25]: > 50 µM
CC50 at 48 h [26]: > 50 µM
CC50 at 48 h [27]: > 50 µM
CC50 at 48 h [28]: > 50 µM
EC50 (Hepatitis C virus [29]): 0.016 µM
EC50 (Hepatitis C virus [30]): 0.12 µM

Fc1cccc(-c2nc3cnn(Cc4ccc(-c5ccc(C(F)(F)F)cc5C(F)(F)F)nc4)cc-3n2)c1F
Cmax [31]: 1100 ng/mL
AUC [32]: 8000 ng·h/mL
EC50 [33]: 7.94 µM
solubility [34]: 9 µg/mL (≈ 16.8 µM)
AUC [1]: 280000 ng·h/mL
AUC [2]: 69000 ng·h/mL
AUC [3]: 24000 ng·h/mL
AUC [4]: 24000 ng·h/mL
Cmax [5]: 27300 ng/mL
Cmax [6]: 7600 ng/mL
Cmax [7]: 2800 ng/mL
Cmax [8]: 2700 ng/mL
bioavailability [14]: 78%
AUC [15]: 1500 ng·h/mL
half-life [16]: 3.14 h
Vd [17]: 2.04 L/kg
clearance [18]: 9 mL/min/kg
CLint scaled [20]: 22 mL/min/kg
EC50 (Hepatitis C virus [29]): 0.016 µM
EC50 (Hepatitis C virus [30]): 0.16 µM
